Where two headings read alike, the source gives them in different places.
Legend:
[1] = molecular target: recombinant SARS-CoV-2 Main protease (Mpro) (Severe acute respiratory syndrome coronavirus 2 (2019-nCoV) (SARS-CoV-2), UniProt P0DTD1); assay: Cov Mpro Biochemical IC50 Assay; conditions: fluorogenic peptide substrate 40 μM
[2] = tested on: SARS-CoV-2-NLuc; assay: microbe, parasite or virus in culture; assay type: cell-based, SARS Coronavirus 2
[3] = recombinant SARS-CoV-2 Mpro 7.5 nM, read-out: MPro IC50
[4] = Severe acute respiratory syndrome coronavirus, 48 h, read-out: MPro EC50
[5] = Severe acute respiratory syndrome coronavirus, 48 h; read-out: MPro EC50

Compound	IC50 [1, 3] [nM]	EC50 [2, 4] [nM]	EC50 [2, 5] [nM]	EC50 ([2]; read-out: MPro EC50) [nM]	IC50 ([1]; MPro IC50, recombinant SARS-CoV-2 Mpro 7.5 nM) [nM]
COc1cc(-c2cc3c(s2)c(=O)n(-c2cnccc2C)c(=O)n3CCC#N)c(Cl)cc1F [Example 987, 3-[6-(2-chloro-4-fluoro-5-methoxy-phenyl)-3-(4-methyl-3-pyridyl)-2,4-dioxo-thieno[3,2-d]pyrimidin-1-yl]propanenitrile]	5.68	5.97	–	–	–
COc1cc(-c2cc3c(s2)c(=O)n(-c2cnnc(C)c2)c(=O)n3CCC#N)c(Cl)cc1F [Example 988]	63.4	259	–	–	–
COc1cc(-c2cc3c(s2)c(=O)n(-c2cccnn2)c(=O)n3CCC#N)c(Cl)cc1F [Example 989]	7.31	19.6	–	–	–
COc1cc(-c2cc3c(s2)c(=O)n(-c2cncc4nc(C)n(C5CC5)c24)c(=O)n3CCC#N)c(Cl)cc1F [Example 990]	4.1	14.1	–	–	–
COc1cc(-c2cc3c(s2)c(=O)n(-c2cncc4nnn(C(C)C)c24)c(=O)n3CCC#N)c(Cl)cc1F [Example 991]	16	49.8	–	–	–
COc1cc(-c2cc3c(s2)c(=O)n(-c2cncc4nc(C5CC5)n(C)c24)c(=O)n3CCC#N)c(Cl)cc1F [Example 992]	18.3	112	–	–	–
COc1cc(-c2cc3c(s2)c(=O)n(-c2cncc4ccccc24)c(=O)n3C)c(Cl)cc1F [Example 993, 6-(2-chloro-4-fluoro-5-methoxy-phenyl)-3-(4-isoquinolyl)-1-methyl-thieno[3,2-d]pyrimidine-2,4-dione]	5.63	–	4.38	–	–
COc1cc(-c2cc3c(s2)c(=O)n(-c2cncc4cccnc24)c(=O)n3C)c(Cl)cc1F [Example 994]	8.46	8.41	–	–	–
COc1cc(-c2cc3c(s2)c(=O)n(-c2cncc4cnn(C5CC5)c24)c(=O)n3CCC#N)c(Cl)cc1F [Example 998]	8.93	6.42	–	–	–
COc1cc(-c2cc3c(s2)c(=O)n(-c2cncc4cnn(C)c24)c(=O)n3CCC#N)c(C#N)cc1F [Example 999, 2-(1-(2-cyanoethyl)-3-(1-methyl-1H-pyrazolo[4,3-c]pyridin-7-yl)-2,4-dioxo-1,2,3,4-tetrahydrothieno[3,2-d]pyrimidin-6-yl)-5-fluoro-4-methoxybenzonitrile]	7.15	–	15.7	–	–
COc1cc(-c2cc3c(s2)c(=O)n(-c2cncc4nccn24)c(=O)n3CCC#N)c(Cl)cc1F [Example 1000]	10.6	20.1	–	–	–
COc1cc(-c2cc3c(s2)c(=O)n(-c2cncc4ccccc24)c(=O)n3CCC#N)c(C#N)cc1F [Example 1001, 2-(1-(2-cyanoethyl)-3-(isoquinolin-4-yl)-2,4-dioxo-1,2,3,4-tetrahydrothieno[3,2-d]pyrimidin-6-yl)-5-fluoro-4-methoxybenzonitrile]	5.04	3.11	–	–	–
COc1cc(-c2cc3c(s2)c(=O)n(-c2cncc4cnn(C)c24)c(=O)n3CCc2nnn[nH]2)c(Cl)cc1F [Example 1002, 6-(2-chloro-4-fluoro-5-methoxy-phenyl)-3-(1-methylpyrazolo[4,3-c]pyridin-7-yl)-1-[2-(1H-tetrazol-5-yl)ethyl]thieno[3,2-d]pyrimidine-2,4-dione]	33.8	–	–	110	–
COc1cc(-c2cc3c(s2)c(=O)n(-c2cncc4cnn(C)c24)c(=O)n3C2CC2C#N)c(Cl)cc1F (stereo not drawn) [Example 1005, 2-(6-(2-chloro-4-fluoro-5-methoxyphenyl)-3-(1-methyl-1H-pyrazolo[4,3-c]pyridin-7-yl)-2,4-dioxo-3,4-dihydrothieno[3,2-d]pyrimidin-1(2H)-yl)cyclopropane-1-carbonitrile]	38.5	–	–	52.9	–
COc1cc(-c2cc3[nH]c(=O)n(-c4cncc5cc(C(=O)N(C)C)sc45)c(=O)c3s2)c(Cl)cc1F [Example 1010, 7-[6-(2-chloro-4-fluoro-5-methoxy-phenyl)-2,4-dioxo-1H-thieno[3,2-d]pyrimidin-3-yl]-N,N-dimethyl-thieno[3,2-c]pyridine-2-carboxamide]	3.29	69.2	–	–	–
COc1cc(-c2cc3[nH]c(=O)n(-c4cncc5cc(C#N)sc45)c(=O)c3s2)c(Cl)cc1F [Example 1011, 7-[6-(2-chloro-4-fluoro-5-methoxy-phenyl)-2,4-dioxo-1H-thieno[3,2-d]pyrimidin-3-yl]thieno[3,2-c]pyridine-2-carbonitrile]	14.5	81.2	–	–	–
Cn1ncc2cncc(-n3c(=O)[nH]c4cc(-c5c(F)ccc6[nH]ncc56)sc4c3=O)c21 [Example 1014, 6-(5-fluoro-1H-indazol-4-yl)-3-(1-methylpyrazolo[4,3-c]pyridin-7-yl)-1H-thieno[3,2-d]pyrimidine-2,4-dione]	> 1000	–	> 1000	–	–
Cc1ccc2nn(C)cc2c1-c1cc2[nH]c(=O)n(-c3cncc4cnn(C)c34)c(=O)c2s1 [Example 1015]	50.9	597	–	–	–

Compound	IC50 [1, 3] [nM]	EC50 [2, 4] [nM]	EC50 [2, 5] [nM]	EC50 ([2]; read-out: MPro EC50) [nM]	IC50 ([1]; MPro IC50, recombinant SARS-CoV-2 Mpro 7.5 nM) [nM]
COc1cc(-c2sc3c(=O)n(-c4cncc5ccccc45)c(=O)[nH]c3c2C)c(Cl)cc1F [Example 1016]	357	–	> 1000	–	–
COc1cc(-c2cc3c(s2)c(=O)n(-c2cncc4cnn(C)c24)c(=O)n3CCC#N)c(Cl)cc1Cl [Example 1017, 3-[6-(2,4-dichloro-5-methoxy-phenyl)-3-(1-methylpyrazolo[4,3-c]pyridin-7-yl)-2,4-dioxo-thieno[3,2-d]pyrimidin-1-yl]propanenitrile]	5.92	–	5.25	–	–
COc1cc(-c2cc3c(s2)c(=O)n(-c2cncc4cnn(C)c24)c(=O)n3CCC#N)c(C)cc1Cl [Example 1018]	15	19.2	–	–	–
COc1cnc(Cl)c(-c2cc3c(s2)c(=O)n(-c2cncc4cnn(C)c24)c(=O)n3CCC#N)c1 [Example 1019, 3-(6-(2-chloro-5-methoxypyridin-3-yl)-3-(1-methyl-1H-pyrazolo[4,3-c]pyridin-7-yl)-2,4-dioxo-3,4-dihydrothieno[3,2-d]pyrimidin-1(2H)-yl)propanenitrile]	8.48	16.3	–	–	–
Cc1cnc(Cl)c(-c2cc3c(s2)c(=O)n(-c2cncc4cnn(C)c24)c(=O)n3CCC#N)c1 [Example 1020]	107	398	–	–	–
Cn1ncc2cncc(-n3c(=O)c4sc(C5C(Cl)=CC(Cl)=C6OCCC65)cc4n(CCC#N)c3=O)c21 (stereo not drawn) [Example 1021]	15.5	37.2	–	–	–
COc1cc(-c2cc3c(s2)c(=O)n(-c2cncc(F)c2C)c(=O)n3CCC#N)c(Cl)cc1F [Example 1022, 3-[6-(2-chloro-4-fluoro-5-methoxy-phenyl)-3-(5-fluoro-4-methyl-3-pyridyl)-2,4-dioxo-thieno[3,2-d]pyrimidin-1-yl]propanenitrile]	7.3	–	9.53	–	–
Cc1c(F)cncc1-n1c(=O)c2sc(-c3ccccc3Cl)cc2n(CCC#N)c1=O [Example 1023]	19.3	–	59.3	–	–
Cc1cc(Cl)c(-c2cc3c(s2)c(=O)n(-c2cncc4cnn(C)c24)c(=O)n3CCC#N)cc1Cl [Example 1024]	9.7	35.4	–	–	–
Cn1ncc2cncc(-n3c(=O)c4sc(-c5ccc(C#N)cc5Cl)cc4n(CCC#N)c3=O)c21 [Example 1025]	86.4	244	–	–	–
COc1cc(-c2cc3c(s2)c(=O)n(-c2cncc(C#CC(C)(C)O)c2)c(=O)n3CCC#N)c(Cl)cc1F [Example 1038, 3-(6-(2-chloro-4-fluoro-5-methoxyphenyl)-3-(5-(3-hydroxy-3-methylbut-1-yn-1-yl)pyridin-3-yl)-2,4-dioxo-3,4-dihydrothieno[3,2-d]pyrimidin-1(2H)-yl)propanenitrile]	1.28	–	5.69	–	–
COc1cc(-c2cc3c(s2)c(=O)n(-c2cncc(C#CC(C)(C)S(C)(=O)=O)c2)c(=O)n3CCC#N)c(Cl)cc1F [Example 1039]	11.7	57.1	–	–	–
COc1cc(-c2cc3c(s2)c(=O)n(-c2cncc(C#N)c2)c(=O)n3CCC#N)c(Cl)cc1F [Example 1040, 5-(6-(2-chloro-4-fluoro-5-methoxyphenyl)-1-(2-cyanoethyl)-2,4-dioxo-1,4-dihydrothieno[3,2-d]pyrimidin-3(2H)-yl)nicotinonitrile]	4.64	–	9.66	–	–
COc1cc(-c2cc3[nH]c(=O)n(-c4cncc5[nH]nc(C(F)(F)F)c45)c(=O)c3s2)c(Cl)cc1F [Example 1045, 6-(2-chloro-4-fluoro-5-methoxyphenyl)-3-(3-(trifluoromethyl)-1H-pyrazolo[3,4-c]pyridin-4-yl)thieno[3,2-d]pyrimidine-2,4(1H,3H)-dione]	141	> 1000	–	–	–
COc1cc(-c2cc3c(s2)c(=O)n(-c2cncc4c2c(C(F)(F)F)nn4COCC[Si](C)(C)C)c(=O)n3CCC#N)c(Cl)cc1F [Example 1046, 3-(6-(2-chloro-4-fluoro-5-methoxyphenyl)-2,4-dioxo-3-(3-(trifluoromethyl)-1-((2-(trimethylsilyl)ethoxy)methyl)-1H-pyrazolo[3,4-c]pyridin-4-yl)-3,4-dihydrothieno[3,2-d]pyrimidin-1(2H)-yl)propanenitrile]	–	–	129	–	35.8
COc1cc(-c2cc3c(s2)c(=O)n(-c2cncc4cn[nH]c24)c(=O)n3CCC#N)c(Cl)cc1F [Example 1047]	5.53	12.4	–	–	–
COc1ccc(Cl)c(-c2cc3[nH]c(=O)n(-c4cncc5sc(C(N)=O)c(C)c45)c(=O)c3s2)c1 [Example 1048, 4-(6-(2-chloro-5-methoxyphenyl)-2,4-dioxo-1,4-dihydrothieno[3,2-d]pyrimidin-3(2H)-yl)-3-methylthieno[2,3-c]pyridine-2-carboxamide]	5.23	–	9.86	–	–
COc1cc(-c2cc3[nH]c(=O)n(-c4cncc5sc(C(N)=O)c(C)c45)c(=O)c3s2)c(Cl)cc1F [Example 1049]	3.16	40.9	–	–	–

Reference: patent US20240116946A1 (Gilead Sciences, Inc., priority 2022, published 2024)
